Key:
recombinant SmCB1 = experiment: Kinetic inhibition assay with recombinant SmCB1 (k2nd); type: biochemical, S. mansoni; conditions: for decrease in inhibitory potency vs gallinamide A / decrease in inhibition potency vs 8: ratio of k2nd values; for SmCB1 inhibition k2nd: second-order rate constant (kinact/Ki), substrate Cbz–Phe–Arg–AMC, pH 5.5, 37 °C, mean ± SE; for decrease in inhibition potency vs 8: range over the compounds named
Method: Gallinamide A and a series of its 18 derivatives were evaluated in vitro as inhibitors of SmCB1 to explore the binding specificities of the subsites in the enzyme’s active site. The gallinamide A inhibitor scaffold can be defined by positions P4 through P1′ (Schechter and Berger nomenclature[37]), which were assigned according to the binding mode analysis (see the crystallographic section below). The substituents R4, R1, and R1′ introduced on the scaffold (Table 2) are numbered according to the respective positions P4, P1, and P1′. The compounds’ second-order rate constants (k2nd) were determined using a kinetic inhibition assay with recombinant SmCB1 and the substrate, Cbz–Phe–Arg–AMC.
Inhibition measurements were performed in duplicate in 96-well microplates (100 μL assay volume) at 37 °C. SmCB1 (40 pM) was added to a mixture of the fluorogenic substrate Cbz–Phe–Arg–AMC (25 μM) and an inhibitor (0–100 μM) in 0.1 M sodium acetate, pH 5.5, containing 2.5 mM dithiothreitol and 0.01% (w/v) BRIJ 35. Substrate hydrolysis was monitored in an Infinite M1000 microplate reader (Tecan) at excitation and emission wavelengths of 360 and 465 nm, respectively, for up to 150 min. An observed first-order rate constant, kobs, was calculated at each inhibitor concentration by fitting the progress curve to the equation P = vi/kobs(1 – exp(−kobst)) + d where P is the product formation, t is the reaction time, vi is the initial velocity, and d is the offset. […] The second-order rate constant, k2nd, (and SE value) was determined by fitting the linear equation kobs = (k2nd[I])/(1 + [S]/Km), where [S] is the substrate concentration, [I] is the inhibitor concentration, and KM is the Michaelis–Menten constant. The KM value determined for SmCB1 was 25 μM. […] To determine IC50 values, SmCB1 (40 pM) was preincubated with the inhibitor (0–100 μM) for 30 min under assay conditions as described above, followed by the addition of the fluorogenic substrate Cbz–Phe–Arg–AMC (20 μM). Substrate hydrolysis was monitored for 30 min in a microplate reader as described above. The IC50 values were determined by nonlinear regression using GraFit software (Erithacus Software).

[1] = system: S. mansoni newly transformed schistosomula (NTS); experiment: Phenotypic screen with newly transformed schistosomula (NTS); type: cell-based
Method: The same 19 gallinamides were screened for bioactivity against S. mansoni newly transformed schistosomula (NTS), the postinvasive parasite stage that feeds on host blood.[40] In this primary assay, the NTS were exposed to 1 and 10 μM compounds for 3 days, and the resulting phenotypic responses were graded from 0 through 4, i.e., the least to the most severe (Table 2 and Table S1). […] The effects were more pronounced after 72 h, and when the higher, 10 μM, compound concentration was used (Table S1). […] Also, compared to gallinamide A and its analogs, 3 has an additional N-terminal N-acetamide modification that further reduces bioactivity (Table 2).
Phenotypic screens employed S. mansoni newly transformed schistosomula (NTS) and adults and were carried out as described previously.[18]−[20],[42] NTS were prepared by mechanically transforming infective larvae (cercariae).[40],[42] NTS (200–300 parasites) were incubated in flat-bottomed 96-well plates in 200 μL of Basch Medium 169 containing 5% (v/v) FBS, 100 U mL^–1 penicillin and 100 μg mL^–1 streptomycin (complete Basch medium)[75] at 5% CO2 and 37 °C.[76],[77] Inhibitors were added at final concentrations of 1 and 10 μM, and changes in phenotypes were observed under an inverted microscope every 24 h for up to 72 h.
A constrained nomenclature of “descriptors”[39],[42] was used to record the multiple and dynamic changes in movement, shape, and translucence that the schistosome parasite is capable of (Table S1 for NTS and Table S3 for adults). These descriptors were then converted into an ordinal “severity score” system ranging from 0 (no effect) to 4 (maximum effect), which allows for the relative comparison of compound effects.

[2] = 1 μM compound, 24 h, scale 0 (no effect) to 4 (most severe)
[3] = 1 μM compound, 48 h, scale 0 to 4
[4] = 1 μM compound, 72 h, scale 0 to 4
[5] = 10 µM compound, 24 h, scale 0 to 4
[6] = 10 µM compound, 48 h, scale 0 to 4
[7] = 10 µM compound, 72 h, scale 0 to 4
[8] = Phe in R1′ changed from S to R configuration

## COC1=CC(=O)N(C(=O)/C=C/[C@H](C)NC(=O)[C@H](CC(C)C)NC(=O)[C@H](CC(C)C)OC(=O)[C@H](C(C)C)N(C)C)[C@H]1C [compound 2]
Recombinant SmCB1
  decrease in inhibitory potency vs gallinamide A: 2 fold
  SmCB1 inhibition k2nd: 3334 ± 559 M^–1·s^–1
[1]; [2]
  schistosomula severity score: 0
[1]; [3]
  schistosomula severity score: 1
[1]; [4]
  schistosomula severity score: 4
[1]; [5]
  schistosomula severity score: 4
[1]; [6]
  schistosomula severity score: 4
[1]; [7]
  schistosomula severity score: 4

## CCC(C)C(NC(C)=O)C(=O)NC(CC(C)C)C(=O)NC(CC(C)C)C(=O)NC(C)C=CC(=O)N1C(=O)C=C(OC)C1C (stereo not drawn) [compound 3]
Recombinant SmCB1
  decrease in inhibitory potency vs gallinamide A: 2.3 fold
  SmCB1 inhibition k2nd: 2902 ± 172 M^–1·s^–1
[1]; [2]
  schistosomula severity score: 0
[1]; [3]
  schistosomula severity score: 0
[1]; 1 µM compound, 72 h
  schistosomula phenotype descriptors: Dark, R
[1]; [4]
  schistosomula severity score: 2
[1]; [5]
  schistosomula severity score: 0
[1]; 10 µM compound, 48 h
  schistosomula phenotype descriptors: Dark, R
[1]; [6]
  schistosomula severity score: 2
[1]; 10 µM compound, 72 h
  schistosomula phenotype descriptors: Dark, R
[1]; [7]
  schistosomula severity score: 2

## CCC(C)C(C(=O)NC(CC(C)C)C(=O)NC(CC(C)C)C(=O)NC(C)C=CC(=O)N1C(=O)C=C(OC)C1C)N(C)C (stereo not drawn) [compound 4]
Recombinant SmCB1
  decrease in inhibitory potency vs gallinamide A: 2.3 fold
  SmCB1 inhibition k2nd: 2894 ± 113 M^–1·s^–1
[1]; [2]
  schistosomula severity score: 0
[1]; [3]
  schistosomula severity score: 0
[1]; [4]
  schistosomula severity score: 4
[1]; [5]
  schistosomula severity score: 1
[1]; [6]
  schistosomula severity score: 4
[1]; [7]
  schistosomula severity score: 4

## C#CCCCCOC1=CC(=O)N(C(=O)C=CC(C)NC(=O)C(CC(C)C)NC(=O)C(CC(C)C)OC(=O)C(C(C)CC)N(C)C)C1C (stereo not drawn) [compound 5]
Recombinant SmCB1
  decrease in inhibitory potency vs gallinamide A: 2.4 fold
  SmCB1 inhibition k2nd: 2792 ± 360 M^–1·s^–1
[1]; [2]
  schistosomula severity score: 0
[1]; [3]
  schistosomula severity score: 4
[1]; [4]
  schistosomula severity score: 4
[1]; [5]
  schistosomula severity score: 1
[1]; [6]
  schistosomula severity score: 4
[1]; [7]
  schistosomula severity score: 4

## CCC(C)C(C(=O)OC(CC(C)C)C(=O)NC(CC(C)C)C(=O)NC(C=CC(=O)N1C(=O)C=C(OC)C1Cc1ccccc1)Cc1ccccc1)N(C)C (stereo not drawn) [compound 7]
Recombinant SmCB1; [8]
  improvement of inhibition vs 14: 17 fold
Recombinant SmCB1
  SmCB1 inhibition k2nd: 942 ± 50 M^–1·s^–1
[1]; [2]
  schistosomula severity score: 0
[1]; 1 µM compound, 48 h
  schistosomula phenotype descriptors: Dark, R, S
[1]; [3]
  schistosomula severity score: 3
[1]; [4]
  schistosomula severity score: 4
[1]; [5]
  schistosomula severity score: 1
[1]; [6]
  schistosomula severity score: 4
[1]; [7]
  schistosomula severity score: 4

## CCC(C)C(C(=O)OC(CC(C)C)C(=O)NC(CC(C)C)C(=O)NC(C=CC(=O)N1C(=O)C=C(OC)C1C)Cc1ccccc1)N(C)C (stereo not drawn) [compound 8]
Recombinant SmCB1
  decrease in inhibitory potency vs gallinamide A: 7.5 fold
  SmCB1 inhibition k2nd: 887 ± 46 M^–1·s^–1
[1]; [2]
  schistosomula severity score: 1
[1]; [3]
  schistosomula severity score: 4
[1]; [4]
  schistosomula severity score: 4
[1]; 10 µM compound, 24 h
  schistosomula phenotype descriptors: Dark, R, S
[1]; [5]
  schistosomula severity score: 3
[1]; [6]
  schistosomula severity score: 4
[1]; [7]
  schistosomula severity score: 4

## CCC(C)C(C(=O)OC(CC(C)C)C(=O)NC(CC(C)C)C(=O)NC(C=CC(=O)N1C(=O)C=C(OC)C1CC(C)C)Cc1ccccc1)N(C)C (stereo not drawn) [compound 10]
Recombinant SmCB1
  SmCB1 inhibition k2nd: 537 ± 48 M^–1·s^–1
[1]; [2]
  schistosomula severity score: 0
[1]; 1 µM compound, 48 h
  schistosomula phenotype descriptors: Dark, R
[1]; [3]
  schistosomula severity score: 2
[1]; [4]
  schistosomula severity score: 4
[1]; [5]
  schistosomula severity score: 0
[1]; [6]
  schistosomula severity score: 4
[1]; [7]
  schistosomula severity score: 4

## COC1=CC(=O)N(C(=O)/C=C/[C@H](Cc2ccccc2)NC(=O)[C@H](CC(C)C)NC(=O)[C@H](CC(C)C)OC(=O)[C@H](C(C)C)N(C)C)[C@H]1CC(C)C [compound 11]
Recombinant SmCB1
  SmCB1 inhibition k2nd: 295 ± 17 M^–1·s^–1
[1]; [2]
  schistosomula severity score: 1
[1]; 1 µM compound, 48 h
  schistosomula phenotype descriptors: Dark, R, S
[1]; [3]
  schistosomula severity score: 3
[1]; [4]
  schistosomula severity score: 4
[1]; [5]
  schistosomula severity score: 1
[1]; [6]
  schistosomula severity score: 4
[1]; [7]
  schistosomula severity score: 4

## COC1=CC(=O)N(C(=O)/C=C/[C@H](Cc2ccccc2)NC(=O)[C@H](CC(C)C)NC(=O)[C@H](CC(C)C)OC(=O)[C@H](Cc2ccccc2)N(C)C)[C@H]1C [compound 12]
Recombinant SmCB1
  decrease in inhibition potency vs 8: 4.2–49 fold
  SmCB1 inhibition k2nd: 212 ± 30 M^–1·s^–1
[1]; [2]
  schistosomula severity score: 1
[1]; 1 µM compound, 48 h
  schistosomula phenotype descriptors: Dark, R
[1]; [3]
  schistosomula severity score: 2
[1]; [4]
  schistosomula severity score: 4
[1]; 10 µM compound, 24 h
  schistosomula phenotype descriptors: Dark, R, S
[1]; [5]
  schistosomula severity score: 3
[1]; [6]
  schistosomula severity score: 4
[1]; [7]
  schistosomula severity score: 4

## COC1=CC(=O)N(C(=O)/C=C/[C@H](Cc2ccccc2)NC(=O)[C@H](CC(C)C)NC(=O)[C@H](CC(C)C)OC(=O)[C@H](Cc2ccccc2)N(C)C)[C@@H]1Cc1ccccc1 [compound 13]
Recombinant SmCB1; [8]
  improvement of inhibition vs 17: 6 fold
Recombinant SmCB1
  SmCB1 inhibition k2nd: 109 ± 2 M^–1·s^–1
[1]; [2]
  schistosomula severity score: 0
[1]; [3]
  schistosomula severity score: 2
[1]; [4]
  schistosomula severity score: 4
[1]; 10 µM compound, 24 h
  schistosomula phenotype descriptors: Dark, R
[1]; [5]
  schistosomula severity score: 2
[1]; [6]
  schistosomula severity score: 4
[1]; [7]
  schistosomula severity score: 4

## CCC(C)C(C(=O)OC(CC(C)C)C(=O)NC(CC(C)C)C(=O)NC(C=CC(=O)N1C(=O)C=C(OC)C1Cc1ccccc1)Cc1ccccc1)N(C)C (stereo not drawn) [compound 14]
Recombinant SmCB1
  decrease in inhibition potency vs 8: 4.2–49 fold
  SmCB1 inhibition k2nd: 54.5 ± 1.3 M^–1·s^–1
[1]; [2]
  schistosomula severity score: 0
[1]; [3]
  schistosomula severity score: 3
[1]; [4]
  schistosomula severity score: 4
[1]; [5]
  schistosomula severity score: 1
[1]; [6]
  schistosomula severity score: 4
[1]; [7]
  schistosomula severity score: 4

## CCC(C)C(C(=O)OC(CC(C)C)C(=O)NC(CC(C)C)C(=O)NC(C=CC(=O)N1C(=O)C=C(OC)C1Cc1ccccc1)Cc1ccccc1)N(C)C (stereo not drawn) [compound 15]
Recombinant SmCB1; Phe in R1 changed from S to R configuration
  decrease in inhibition vs 7: 23 fold
Recombinant SmCB1; [8]
  improvement of inhibition vs 18: 2.6 fold
Recombinant SmCB1
  SmCB1 inhibition k2nd: 41.6 ± 1.6 M^–1·s^–1
[1]; [2]
  schistosomula severity score: 0
[1]; [3]
  schistosomula severity score: 3
[1]; 10 µM compound, 24 h
  schistosomula phenotype descriptors: Dark, R
[1]; [5]
  schistosomula severity score: 2
[1]; [6]
  schistosomula severity score: 4
[1]; [7]
  schistosomula severity score: 4

## CCC(C)C(C(=O)OC(CC(C)C)C(=O)NC(CC(C)C)C(=O)NC(C)CCC(=O)N1C(=O)C=C(OC)C1C)N(C)C (stereo not drawn) [compound 16]
Recombinant SmCB1; absence of a double bond in the acrylamide group
  decrease in k2nd: 2 orders of magnitude
Recombinant SmCB1
  SmCB1 inhibition k2nd: 36.9 ± 0.3 M^–1·s^–1
[1]; [2]
  schistosomula severity score: 0
[1]; [3]
  schistosomula severity score: 0
[1]; [4]
  schistosomula severity score: 0
[1]; [5]
  schistosomula severity score: 0
[1]; 10 µM compound, 48 h
  schistosomula phenotype descriptors: Dark, R
[1]; [6]
  schistosomula severity score: 2
[1]; 10 µM compound, 72 h
  schistosomula phenotype descriptors: Dark, R
[1]; [7]
  schistosomula severity score: 2

## COC1=CC(=O)N(C(=O)/C=C/[C@H](Cc2ccccc2)NC(=O)[C@H](CC(C)C)NC(=O)[C@H](CC(C)C)OC(=O)[C@H](Cc2ccccc2)N(C)C)[C@H]1Cc1ccccc1 [compound 17]
Recombinant SmCB1
  decrease in inhibition potency vs 8: 4.2–49 fold
  SmCB1 inhibition k2nd: 18.2 ± 0.2 M^–1·s^–1
[1]; [2]
  schistosomula severity score: 0
[1]; [3]
  schistosomula severity score: 0
[1]; [4]
  schistosomula severity score: 4
[1]; [5]
  schistosomula severity score: 1
[1]; [6]
  schistosomula severity score: 4
[1]; [7]
  schistosomula severity score: 4

Source: publication PMC11184554, “Nature-Inspired Gallinamides Are Potent Antischistosomal Agents: Inhibition of the Cathepsin B1 Protease Target and Binding Mode Analysis” (ACS Infectious Diseases, 2024)
